# From patent US9040673B2, “Synthesis and identification of novel RSK-specific inhibitors” (University of Virginia Patent Foundation, priority 2009, dated 2015)
# Like-named read-outs stand apart in the source and are kept apart here.
# Experiments:
# CaLu-1 cells = assay: Calu-1 wound migration after siRNA transfection; assay type: cell-based, human; details: wound 48 hours after, 19 hr
# Procedure: Calu-1 cells were transiently transfected in suspension with either control siRNA, RSK1-specific siRNA, RSK2-specific siRNA or both RSK-1 and RSK2-specific siRNA. […] After four hours, the transfection medium was removed and the cells were plated in […] tissue-culture clusters. Forty-eight hours after transfection, scratches were made in the monolayer of cells using sterile, disposable micropipette tips. Images were captured-immediately following the wounding, and 19 hours after wounding. […] By 19 hr, the cells transfected with control siRNA have migrated into the wound. […] Thus, RSK activity is required for Calu-1 migration. More particularly, the ability of the entire monolayer to respond to the wound is depressed in the SL0101-treated cells as well as the siRNA transfected.
# MCF-7 cells = assay: MCF-7 cell proliferation (CellTiter-Glo cell viability); assay type: cell-based, human; details: for inhibition of MCF-7 cell growth: 50 uM; for IC50: 48 hours of treatment, read-out: concentration inhibiting proliferation of MCF-7 cells by 50%
# RSK2 = RSK2 (Homo sapiens, UniProt P51812)
# Chain of RSK2 (P51812 1-397 limits assumed): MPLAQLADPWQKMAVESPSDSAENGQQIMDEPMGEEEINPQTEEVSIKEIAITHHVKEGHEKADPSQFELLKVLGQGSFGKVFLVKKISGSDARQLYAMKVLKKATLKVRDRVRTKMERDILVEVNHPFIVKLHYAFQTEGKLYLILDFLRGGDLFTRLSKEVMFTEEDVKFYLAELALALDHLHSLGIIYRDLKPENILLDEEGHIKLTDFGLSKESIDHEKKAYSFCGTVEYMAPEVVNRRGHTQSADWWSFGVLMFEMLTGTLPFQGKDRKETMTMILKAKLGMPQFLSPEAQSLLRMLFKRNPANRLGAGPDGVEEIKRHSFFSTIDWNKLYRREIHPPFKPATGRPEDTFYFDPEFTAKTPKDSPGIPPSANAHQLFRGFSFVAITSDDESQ
# HUVEC cells = assay: VEGF-induced capillary network formation in HUVEC cells; assay type: cell-based, human; details: 20 μM, 10 ng/ml VEGF, 20 hours
# Procedure: Interfering with tube formation is a characteristic common to anti-angiogenic treatments. HUVEC cells were seeded at a density of 1×10^5 cells per well in 24-well culture dishes coated in growth factor-reduced Matrigel (BD Biosciences). […] The cells were incubated at 37° C. for 20 hours. Images of the cells were captured for analysis of the capillary-like network.
# MCF-10A cells = assay: MCF-10A cell proliferation; assay type: cell-based, human
# Procedure: The cell number was measured after 48 h of treatment. Values given are the fold proliferation as a percentage of that observed with vehicle-treated cells. Points, mean (n=2 in quadruplicate); bars=SD.
# FIGS. 8A-8D SL0101-1 inhibits the proliferation of cancer cells but not normal cells. […] Cell viability was measured at indicated time points. Proliferation assays were conducted using CellTiter-Glo Luminescent Cell Viability Assay (Promega), performed 44 hrs after treatment for FIGS. 8A &B and at indicated points for FIG. 8C. The data are expressed relative to time 0.
# (§1) Cell Culture. For proliferation studies cells were seeded at 2500 to 5000 cells per well in 96 well tissue culture plates in the appropriate medium as described by American Type Culture Collection. After 24 hr, the medium was replaced with medium containing compound or vehicle as indicated. Cell viability was measured at indicated time points using CellTiter-Glo™ assay reagent (Promega) according to manufacturer's protocol. For in vivo inhibition studies, cells were seeded at 2.5×10^5 cells/well in 12 well cell culture clusters. After 24 hr, the cells were serum starved for 24 hr then incubated with compound or vehicle for 3 hr prior to a 30 min PDB stimulation. Cells were lysed as previously described (J. Biol. Chem. 273, 13317-13323 (1998)). The lysates were normalized for total protein, electrophoresed and immunoblotted. For cell imaging, Ha-Ras-transformed NIH/3T3 cells were seeded on LABTEK II chamber slides (Nalge) at a density of 1×10^4 cells/well. After 24 hr, fresh medium was added the indicated compounds or vehicle. Images were taken 48 hr after treatment at a magnification of 20×.
# p140, a RSK substrate = assay: PDB-induced p140 phosphorylation in MCF-7 cells (immunoblot); assay type: cell-based, human; details: 50 μM, 3 hr pre-incubation, 500 nM PDB 30 min
# Procedure: To determine whether SL0101-1 inhibits RSK in intact cells, phosphorylation of p140, a RSK substrate of unknown function, was examined in a human breast cancer cell line, MCF-7. MCF-7 and MCF-10A cells were pre-incubated with vehicle, 50 μM U0126 or the indicated concentration of SL0101-1 for 3 hr (FIG. 8D). Cells were treated with 500 nM PDB for 30 min prior to lysis. Protein concentration of lysates was measured and lysates were electrophoresed, transferred and immunoblotted. […] Pre-incubation of cells with 100 μM SL0101-1 abrogates phorbol dibutyrate (PDB)-induced p140 phosphorylation as does 50 μM U0126, a MEK inhibitor.
# as §1, with “The lysates were normalized for total protein, electrophoresed and immunoblotted. For cell imaging, Ha-Ras-transformed NIH/3T3 cells were seeded on LABTEK II chamber slides (Nalge) at a density of 1×10^4 cells/well. After 24 hr, fresh medium was added the indicated compounds or vehicle. Images were taken 48 hr after treatment at a magnification of 20×.” left out
# [1] = indicated concentration, 48 h of treatment
compound,measurement,setting,value
"RSK1-specific siRNA: custom oligonucleotide to Rsk1 mRNA, AAGAAGCUGGACUUCAGCCGU; SEQ ID NO: 1 (listed as RNA, chemistry not given here; listed as Homo sapiens)",migration of Calu-1 cells into wound,CaLu-1 cells,reduced ability to migrate into the wound
"CC(=O)OC1C(C)OC(Oc2c(-c3ccc(O)cc3)oc3cc(O)cc(O)c3c2=O)C(O)C1O [4″-mono-O-acetyl-SL0101, kaempferol 3-O-(4″-mono-O-acetyl-α-L-rhamnopyranoside)]",inhibition of MCF-7 cell growth,MCF-7 cells,did not inhibit MCF-7 cell proliferation
same,IC50,RSK2,~0.14 µM
"CCCC1OC(Oc2c(-c3ccc(O)cc3)oc3cc(O)cc(O)c3c2=O)C(O)C(OC(C)=O)C1OC(C)=O [compound 16, Kaempferol-6″ethyl-L-rhamnoside-3″,4″-diacetate]",IC50,"MCF-7 cells; Homo sapiens, MCF7",~30 µM
same,proliferation of MCF-7 cells,MCF-7 cells; [1],inhibit proliferation
CC(C)c1cc(/C=C(\C#N)C(=O)NCCCc2ccccc2)cc(C(C)C)c1O [SU1498],capillary-like network formation,HUVEC cells,rounded nodes with few tube-like projections
"CC(=O)O[C@@H]1[C@@H](OC(C)=O)[C@H](C)O[C@@H](Oc2c(-c3ccc(O)cc3)oc3cc(O)cc(O)c3c2=O)[C@@H]1OC(C)=O [3Ac-SL0101, kaempferol 3-O-(2″,3″,4″-tri-O-acetyl-α-L-rhamnopyranoside)]",proliferation of MCF-7 cells,MCF-7 cells; [1],selectively inhibits MCF-7 breast cancer cell proliferation
same,proliferation of MCF-10A (nontransformed) cells,MCF-10A cells; [1],not nontransformed breast cell proliferation
"CC(=O)OC1C(C)OC(Oc2c(-c3ccc(O)cc3)oc3cc(O)cc(O)c3c2=O)C(OC(C)=O)C1O [2″,4″-di-O-acetyl-SL0101, kaempferol 3-O-(2″,4″-di-O-acetyl-α-L-rhamnopyranoside)]",inhibition of MCF-7 cell growth,MCF-7 cells,similarly effective at inhibiting MCF-7 cell growth
same,IC50,RSK2,~0.26 µM
Cn1cc(C2=C(c3cn(CCCSC(=N)N)c4ccccc34)C(=O)NC2=O)c2ccccc21 [Ro 318220],proliferation of MCF-7 cells,MCF-7 cells; 500 nM,attenuated proliferation
same,proliferation of MCF-10A cells,MCF-10A cells; 500 nM,attenuated proliferation
"CC(=O)OC1C(C)CC(Oc2c(-c3ccc(O)cc3)oc3cc(O)cc(O)c3c2=O)C(O)C1OC(C)=O [compound 14, Kaempferol L-carbarhamnoside 3″,4″-diacetate]",IC50,"MCF-7 cells; Homo sapiens, MCF7",~30 µM
same,proliferation of MCF-7 cells,MCF-7 cells; [1],inhibit proliferation
"CC(=O)OC1C(C)CC(Oc2c(-c3ccc(O)cc3)oc3cc(O)cc(O)c3c2=O)C(O)C1O [compound 12, Kaempferol L-carbarhamnoside 4″-acetate]",proliferation of MCF-7 cells,MCF-7 cells; [1],inhibit proliferation
"RSK2-specific siRNA: custom oligonucleotide to Rsk2 mRNA, AACCUAUGGGAGAGGAGGAGA; SEQ ID NO: 2 (listed as RNA, chemistry not given here; listed as Homo sapiens)",migration of Calu-1 cells into wound,CaLu-1 cells,reduced ability to migrate into the wound
O=c1c(O)c(-c2ccc(O)cc2)oc2cc(O)cc(O)c12 [kaempferol],growth of MCF-7 cells,MCF-7 cells; concentration not given,slows growth
same,growth of MCF-10A cells,MCF-10A cells; concentration not given,slows growth
"CC(=O)OC1C(C)CC(Oc2c(-c3ccc(O)cc3)oc3cc(O)cc(O)c3c2=O)C(OC(C)=O)C1O [compound 13, Kaempferol L-carbarhamnoside 2″,4″-diacetate]",IC50,MCF-7 cells,~30 µM
same,proliferation of MCF-7 cells,MCF-7 cells; [1],inhibit proliferation
N#CC(=C(/N)Sc1ccccc1N)/C(C#N)=C(\N)Sc1ccccc1N [U0126],proliferation of MCF-7 cells,MCF-7 cells; 50 μM (FIG. 8A),halted proliferation
same,PDB-induced p140 phosphorylation,"p140, a RSK substrate",abrogates
same,proliferation of MCF-10A cells,MCF-10A cells; 50 μM (FIG. 8A),halted proliferation
